Results taken from patent publication US6992079B2, “Substituted 11-phenyl-dibenzazepine compounds useful for the treatment or prevention of diseases characterized by abnormal cell proliferation” (President Fellows of Harvard College, priority 1997, dated 2006).
Read-outs that look alike come from different tables or passages of the source.

What was measured:
CCRF-CEM = assay: In-Vitro Testing SRB panel: Leukemia; type: cell-based
SK-OV-3 = assay: In-Vitro Testing SRB panel: Ovarian Cancer; type: cell-based; details: SK-OV-3
MC-F7 = assay: In-Vitro Testing SRB panel: Breast Cancer; type: cell-based
UACC-62 = assay: In-Vitro Testing SRB panel: Melanoma; type: cell-based; details: UACC-62
CARI-1 = assay: In-Vitro Testing SRB panel: Renal Cancer; type: cell-based
SK-MEL-5 = assay: In-Vitro Testing SRB panel: Melanoma; type: cell-based; details: SK-MEL-5
[1] = test system: squamous cell carcinoma (KLN-205) cells; assay: Tumor growth in murine squamous cell carcinoma model; type: in vivo, mouse; details: KLN-205; subcutaneous injection or oral administration of 80 mg/kg/day for 30 days
K-562 = assay: In-Vitro Testing SRB panel: Leukemia; type: cell-based
[2] = test system: panel of human cancer cells; assay: In vitro screening, SRB, panel of 60 human cancer cell lines; type: cell-based
NCI-H460 = type: cell-based; details: NCI-H460
ACHN = assay: In-Vitro Testing SRB panel: Renal Cancer; type: cell-based
[3] = In-Vitro Testing SRB panel: Renal Cancer; type: cell-based
SNB-75 = assay: In-Vitro Testing SRB panel: CNS Cancer; type: cell-based; details: SNB-75
LOX IMVI = assay: In-Vitro Testing SRB panel: Melanoma; type: cell-based
A549/ATCC = type: cell-based
ROP-92 = type: cell-based
OVCAR-8 = assay: In-Vitro Testing SRB panel: Ovarian Cancer; type: cell-based; details: OVCAR-8
A498 = assay: In-Vitro Testing SRB panel: Renal Cancer; type: cell-based; details: A498
[4] = test system: NIH 3T3 mouse fibroblast cells; assay: Mitogenic assay (mitogen-induced cell proliferation); type: cell-based; details: Mus musculus, NIH3T3, 10 μM compound
[5] = Homo sapiens, read-out: LC50 (the source's name)

Compound COc1cccc2c1C(c1ccccc1Cl)c1cc(Cl)ccc1N(C(=O)c1ccc([N+](=O)[O-])cc1)C2 (centres unmarked) [Compound 31] has a TGI (CCRF-CEM) of over 1.00E−04 Molar, a GI50 (CCRF-CEM; Homo sapiens) of 1.53 µM and a CC50 (CCRF-CEM; [5]) of over 100 µM. The “Percent Growth” value (CCRF-CEM; log10 conc -4 Molar) was 2%, the “Percent Growth” value (CCRF-CEM; log10 conc -5 Molar) was 21% and the “Percent Growth” value (CCRF-CEM; log10 conc -6 Molar) was 56%. The “Percent Growth” value (CCRF-CEM; log10 conc -7 Molar) was 94%, the “Percent Growth” value (CCRF-CEM; log10 conc -8 Molar) was 111% and the GI50 (SK-OV-3; Homo sapiens) was over 100 µM. The CC50 (SK-OV-3; [5]) was over 100 µM, the TGI (SK-OV-3) was over 1.00E−04 Molar and the “Percent Growth” value (SK-OV-3; log10 conc -4 Molar) was 63%. For the same compound, the “Percent Growth” value (SK-OV-3; log10 conc -5 Molar) was 85%, the “Percent Growth” value (SK-OV-3; log10 conc -6 Molar) was 88% and the “Percent Growth” value (SK-OV-3; log10 conc -7 Molar) was 102%. The “Percent Growth” value (SK-OV-3; log10 conc -8 Molar) was 97%, the GI50 (MC-F7; Homo sapiens, MCF7) was 0.821 µM and the CC50 (MC-F7; Homo sapiens, MCF7, MC-F7, read-out: LC50 (the source's name)) was over 100 µM. For the same compound, the TGI (MC-F7; MC-F7) was over 1.00E−04 Molar, the “Percent Growth” value (MC-F7; MC-F7, log10 conc -4 Molar) was 5% and the “Percent Growth” value (MC-F7; MC-F7, log10 conc -5 Molar) was 19%. The “Percent Growth” value (MC-F7; MC-F7, log10 conc -6 Molar) was 46%, the “Percent Growth” value (MC-F7; MC-F7, log10 conc -7 Molar) was 93% and the “Percent Growth” value (MC-F7; MC-F7, log10 conc -8 Molar) was 97%. The GI50 (UACC-62; Homo sapiens) was 0.43 µM, the CC50 (UACC-62; [5]) was over 100 µM and the TGI (UACC-62) was over 1.00E−04 Molar. The “Percent Growth” value (UACC-62; log10 conc -4 Molar) was 14%, the “Percent Growth” value (UACC-62; log10 conc -5 Molar) was 32% and the “Percent Growth” value (UACC-62; log10 conc -6 Molar) was 36%. The “Percent Growth” value (UACC-62; log10 conc -7 Molar) was 74%, the “Percent Growth” value (UACC-62; log10 conc -8 Molar) was 90% and the TGI (CARI-1; CARI-1) was over 1.00E−04 Molar. The “Percent Growth” value (CARI-1; CARI-1, log10 conc -4 Molar) was 4%, the “Percent Growth” value (CARI-1; CARI-1, log10 conc -5 Molar) was 37% and the “Percent Growth” value (CARI-1; CARI-1, log10 conc -6 Molar) was 48%. The “Percent Growth” value (CARI-1; CARI-1, log10 conc -7 Molar) was 80%, the “Percent Growth” value (CARI-1; CARI-1, log10 conc -8 Molar) was 103% and the GI50 (CARI-1; Homo sapiens) was 0.888 µM. It also gave a CC50 (CARI-1; Homo sapiens, CARI-1, read-out: LC50 (the source's name)) of over 100 µM, a GI50 (SK-MEL-5; Homo sapiens) of 0.597 µM and a CC50 (SK-MEL-5; [5]) of over 100 µM. For the same compound, the TGI (SK-MEL-5) was over 1.00E−04 Molar, the “Percent Growth” value (SK-MEL-5; log10 conc -4 Molar) was 17% and the “Percent Growth” value (SK-MEL-5; log10 conc -5 Molar) was 27%. For the same compound, the “Percent Growth” value (SK-MEL-5; log10 conc -6 Molar) was 41%, the “Percent Growth” value (SK-MEL-5; log10 conc -7 Molar) was 81% and the “Percent Growth” value (SK-MEL-5; log10 conc -8 Molar) was 94%. For the same compound, the tumor growth [1] was “significantly inhibited tumor growth”, the GI50 (K-562; Homo sapiens, K562) was 0.506 µM and the CC50 (K-562; Homo sapiens, K562, K-562, read-out: LC50 (the source's name)) was over 100 µM. The TGI (K-562; K-562) was over 1.00E−04 Molar, the “Percent Growth” value (K-562; K-562, log10 conc -4 Molar) was 15% and the “Percent Growth” value (K-562; K-562, log10 conc -5 Molar) was 24%. For the same compound, the “Percent Growth” value (K-562; K-562, log10 conc -6 Molar) was 39%, the “Percent Growth” value (K-562; K-562, log10 conc -7 Molar) was 77% and the “Percent Growth” value (K-562; K-562, log10 conc -8 Molar) was 93%. The “activity against the human cell panel” value [2] was “exhibited activity against the human cell panel”, the GI50 (NCI-H460; Homo sapiens) was 0.595 µM and the CC50 (NCI-H460; [5]) was over 100 µM. The TGI (NCI-H460) was 2.81E−05 Molar, the “Percent Growth” value (NCI-H460; log10 conc -4 Molar) was −16% and the “Percent Growth” value (NCI-H460; log10 conc -5 Molar) was 10%. The “Percent Growth” value (NCI-H460; log10 conc -6 Molar) was 36%, the “Percent Growth” value (NCI-H460; log10 conc -7 Molar) was 99% and the “Percent Growth” value (NCI-H460; log10 conc -8 Molar) was 96%. It also gave a TGI (ACHN) of over 1.00E−04 Molar, a GI50 (ACHN; Homo sapiens) of 0.803 µM and a CC50 (ACHN; [5]) of over 100 µM. The “Percent Growth” value (ACHN; log10 conc -4 Molar) was 8%, the “Percent Growth” value (ACHN; log10 conc -5 Molar) was 26% and the “Percent Growth” value (ACHN; log10 conc -6 Molar) was 45%. The “Percent Growth” value (ACHN; log10 conc -7 Molar) was 95%, the “Percent Growth” value (ACHN; log10 conc -8 Molar) was 92% and the TGI ([3]; DO-31) was over 1.00E−04 Molar. For the same compound, the “Percent Growth” value ([3]; DO-31, log10 conc -4 Molar) was 1%, the “Percent Growth” value ([3]; DO-31, log10 conc -5 Molar) was 19% and the “Percent Growth” value ([3]; DO-31, log10 conc -6 Molar) was 61%. The “Percent Growth” value ([3]; DO-31, log10 conc -7 Molar) was 104%, the “Percent Growth” value ([3]; DO-31, log10 conc -8 Molar) was 94% and the GI50 ([3]; Homo sapiens) was 1.82 µM. For the same compound, the CC50 ([3]; Homo sapiens, DO-31, read-out: LC50 (the source's name)) was over 100 µM, the GI50 (SNB-75; Homo sapiens) was 5.9 µM and the CC50 (SNB-75; [5]) was over 100 µM. The TGI (SNB-75) was 6.40E−05 Molar, the “Percent Growth” value (SNB-75; log10 conc -4 Molar) was −11% and the “Percent Growth” value (SNB-75; log10 conc -5 Molar) was 44%. For the same compound, the “Percent Growth” value (SNB-75; log10 conc -6 Molar) was 82%, the “Percent Growth” value (SNB-75; log10 conc -7 Molar) was 100% and the “Percent Growth” value (SNB-75; log10 conc -8 Molar) was 103%. The TGI (LOX IMVI) was over 1.00E−04 Molar, the GI50 (LOX IMVI; Homo sapiens) was 0.617 µM and the CC50 (LOX IMVI; [5]) was over 100 µM. The “Percent Growth” value (LOX IMVI; log10 conc -4 Molar) was 13%, the “Percent Growth” value (LOX IMVI; log10 conc -5 Molar) was 12% and the “Percent Growth” value (LOX IMVI; log10 conc -6 Molar) was 39%. The “Percent Growth” value (LOX IMVI; log10 conc -7 Molar) was 93%, the “Percent Growth” value (LOX IMVI; log10 conc -8 Molar) was 97% and the TGI (A549/ATCC; A549/ATCC) was over 1.00E−04 Molar. The “Percent Growth” value (A549/ATCC; A549/ATCC, log10 conc -4 Molar) was 3%, the “Percent Growth” value (A549/ATCC; A549/ATCC, log10 conc -5 Molar) was 11% and the “Percent Growth” value (A549/ATCC; A549/ATCC, log10 conc -6 Molar) was 61%. The “Percent Growth” value (A549/ATCC; A549/ATCC, log10 conc -7 Molar) was 98%, the “Percent Growth” value (A549/ATCC; A549/ATCC, log10 conc -8 Molar) was 94% and the GI50 (A549/ATCC; Homo sapiens, A549) was 1.67 µM. For the same compound, the CC50 (A549/ATCC; Homo sapiens, A549/ATCC, read-out: LC50 (the source's name)) was over 100 µM, the GI50 (ROP-92; Homo sapiens) was 5.53 µM and the CC50 (ROP-92; Homo sapiens, ROP-92, read-out: LC50 (the source's name)) was over 100 µM. For the same compound, the TGI (ROP-92; ROP-92) was over 1.00E−04 Molar, the “Percent Growth” value (ROP-92; ROP-92, log10 conc -4 Molar) was 27% and the “Percent Growth” value (ROP-92; ROP-92, log10 conc -5 Molar) was 42%. The “Percent Growth” value (ROP-92; ROP-92, log10 conc -6 Molar) was 74%, the “Percent Growth” value (ROP-92; ROP-92, log10 conc -7 Molar) was 88% and the “Percent Growth” value (ROP-92; ROP-92, log10 conc -8 Molar) was 89%. The GI50 (OVCAR-8; Homo sapiens) was 5.3 µM, the CC50 (OVCAR-8; [5]) was over 100 µM and the TGI (OVCAR-8) was over 1.00E−04 Molar. The “Percent Growth” value (OVCAR-8; log10 conc -4 Molar) was 29%, the “Percent Growth” value (OVCAR-8; log10 conc -5 Molar) was 38% and the “Percent Growth” value (OVCAR-8; log10 conc -6 Molar) was 82%. For the same compound, the “Percent Growth” value (OVCAR-8; log10 conc -7 Molar) was 94%, the “Percent Growth” value (OVCAR-8; log10 conc -8 Molar) was 99% and the TGI (A498) was 6.86E−06 Molar. The “Percent Growth” value (A498; log10 conc -4 Molar) was −32%, the “Percent Growth” value (A498; log10 conc -5 Molar) was −11% and the “Percent Growth” value (A498; log10 conc -6 Molar) was 55%. The “Percent Growth” value (A498; log10 conc -7 Molar) was 93%, the “Percent Growth” value (A498; log10 conc -8 Molar) was 93% and the GI50 (A498; Homo sapiens) was 1.19 µM. For the same compound, the CC50 (A498; [5]) was over 100 µM and the inhibition at 10 µM [4] was 99%.
